Data on 3 compounds can be found in US7432264B2, “Antimicrobial biaryl compounds” (Isis Pharmaceuticals, Inc., priority 2000, dated 2008).

In assay [1] the target is A1061 23S rRNA MS screening construct. Briefly: Mass-spec binding assay (SAR by MS, ESI-FTICR-MS). The arrangement: species or system E. coli. The protocol:
Binding affinity of test compounds to a 58 nucleotide fragment of E. coli 23S ribosomal RNA (23S rRNA) was determined using electrospray ionization Fourier transform ion cyclotron resonance mass spectrometry (ESI-FTICR-MS). The structure of the 23S rRNA fragment and its preparation is described by Conn et al (Science, 1999, 284(5417):1171) and Hinck et al (J. Mol. Biol., 1997, 274(1):101) both incorporated herein by reference. The mass spec assay determined the exact chemical composition of ligands that bound to the target rRNA and determined relative or absolute dissociation (KD) of ligands for the target. In the first step of the assay, a mixture of 23S rRNA target and test compound were moved from solution into the gas phase by electrospray ionization. The FT-ICR mass spectrometer served as a parallel set of “scales”, simultaneously measuring the exact molecular masses of the small molecules that bound to the RNA with great accuracy. The mass measurement error for an RNA-ligand complex weighing 10 kDa equals the mass of an electron. At this level of mass accuracy, each compound in the mixture was “labeled” by its molecular formula and exact molecular mass. […]

The test system of assay [2] is E. coli S30 bacterial extract (protein synthesis). Type of assay: biochemical. The protocol: Coupled Bacterial Transcription/Translation Assay. The DNA template, pBestLuc™ (Promega), is a plasmid containing a reporter gene for firefly luciferase fused to a strong tac promoter and ribosome binding site. Messenger RNA from 1 μg pBestLuc was transcribed and translated in E. coli S30 bacterial extract in the presence or absence of test compound. Compounds were tested in a black 96 well microtiter plate with an assay volume of 35 μL. Each test well contained: 5 μL test compound, 13 μL S30 premix (Promega), 4 μL 10× complete amino acid mix (1 mM each), 5 μL E. coli S30 extract and 8 μL of […] pBestLuc™. The transcription/translation reaction was incubated for 35 minutes at 37° C. followed by detection of functional luciferase with the addition of 30 μL LucLite™ (Packard). Light output was quantitated on a Packard TopCount.

Assay [3] deals with P. vulgaris ATCC 8427. Put plainly: MIC, Proteus vulgaris. Type of assay: cell-based. The protocol:
(§1) Determination of Minimum Inhibitory Concentrations (MICs). The assays were carried out in […] volume in duplicate in 96-well clear flat-bottom plates. The bacterial suspension from an overnight culture growth in appropriate medium was added to a solution of test compound in 4% DMSO in water. Final bacterial inoculum was approximately 10^5-10^6 CFU/well. The percent growth of the bacteria in test wells relative to that observed for a well containing no compound was determined by measuring absorbance at 595 nm (A595) after 24 h. […] Both ampicillin and tetracycline is used as antibiotic-positive controls in each screening assay for S. pyogenes, E. coli imp-, E. coli, S. aureus, E. faecalis, K pneumoniae and P. vulgaris. Ciprofloxacin is used as an antibiotic positive control in each screening assay for P. aeruginosa.

The subject of assay [4] is E. faecalis ATCC 29212. Briefly: MIC, Enterococcus faecalis. Type of assay: cell-based. The protocol: (§2) Bacterial Strains. The Streptococcus pyogenes strains, Klebsiella pneumoniae, Escherichia coli, Staphylococcus aureus, Enterococcus faecalis used in the antibacterial activity studies ATCC 14289, 49399, 13883, 25922, 13709, 29212, respectively, are obtained from the American Type Culture Collection, Rockville, Md. The strain E. coli imp— is a mutant strain of wild type E. coli with increased outer membrane permeability and was grown in LB broth at 37 °C. S. pyogenes strain is grown in Todd-Hewitt broth. S. aureus is grown in trypticase soy broth, E. faecalis in Todd-Hewitt broth, wild type E. coli and K. pneumoniae, in nutrient broth.
as §1, with “Ciprofloxacin is used as an antibiotic positive control in each screening assay for P. aeruginosa.” left out

In assay [5] the test system is S. aureus ATCC 13709. Briefly: Minimum inhibitory concentration (MIC), S. aureus. Type of assay: cell-based, Staphylococcus aureus. The protocol:
as §2, §1

Assay [6] has as its system methicillin resistant S. aureus ATCC43300. Briefly: MIC, methicillin-resistant S. aureus. Type of assay: cell-based, Staphylococcus aureus. The protocol: as §1
The test system of assay [7] is K pneumoniae ATCC 13383. Put plainly: MIC, Klebsiella pneumoniae. Type of assay: cell-based. The protocol:
as §2
as §1, with “Ciprofloxacin is used as an antibiotic positive control in each screening assay for P. aeruginosa.” left out

The test system of assay [8] is E. coli ATCC 25922. Put plainly: Minimum inhibitory concentration (MIC), E. coli. Type of assay: cell-based, Escherichia coli. The protocol:
as §2, §1

The subject of assay [9] is eukaryotic protein synthesis. Briefly: Eukaryotic protein synthesis, cell-free assay. Type of assay: biochemical. The conditions noted are these: at 200:M. The source says:
The biphenyl substitution improves in vitro antibacterial […] 4-fold compared to the phenyl substitution (34 versus 26). […] Biaryl 34 was selected to be evaluated against some additional bacterial strains. […] See Kung, P.-P.; Casper, M. D.; Cook, K. L.; Wilson-Lingardo, L.; Risen, L. M.; Vickers, T. A.; Ranken, R.; Blyn, L. B.; Wyatt, J. R.; Cook, P. D.; Ecker, D. J. J. Med. Chem. 1999, 42, 4705-4713.

Assay [10] has as its system S. pyogenes ATCC 49399. Put plainly: MIC, Streptococcus pyogenes. Type of assay: cell-based. The protocol: as §2
as §1, with “Ciprofloxacin is used as an antibiotic positive control in each screening assay for P. aeruginosa.” left out

The structures appear in SMILES notation. pKd: −log10 of the molar value. Converted amounts (≈) assume the structure as drawn.

As usually defined, the pKd is the Kd on a negative log10 scale, so that one unit is a factor of ten. For `NCC[C@@H](NC(=O)c1ccco1)C(=O)N1CCNCC1`, the negative-log Kd (pKd) in [1] is 4.30.
For `CN(C)CCCOc1ccc(C(NC(=O)c2ccc3[nH]c(=O)c(=O)[nH]c3c2)C(=O)N2CCNCC2)cc1` (stereo not shown) [Compound 22], in assay [2] (at 200:M), the “activity in bacterial protein synthesis assay at 200:M” value is “inactive”.
The term MIC denotes the lowest concentration that inhibits growth of the organism. In the case of `CN(C)CCCOc1ccc(C(NC(=O)c2ccc(-c3cccc(NC(=O)c4ccc(-c5ccccc5)cc4)c3)o2)C(=O)N2CCNCC2)cc1` (stereo not shown) [Compound 34], the “MIC Proteus vulgaris” value in assay [3] is 50-100 :M. The “MIC Enterococcus faecalis” value in assay [4] was 3-6 :M. For the same compound, the “MIC S. aureus” value in [5] (S. aureus ATCC 13709) is 3-6 :M. Further, the MIC was 6 to 13 mM (≈ 4110 to 8920 µg/mL) in assay [5] (Staphylococcus aureus, ATCC13709, 24 h, read-out: MIC (S. aureus)) and 6 to 13 mM (≈ 4110 to 8920 µg/mL) in [8] (Escherichia coli, ATCC25922, 24 h, read-out: MIC (E. coli)). In addition, the “fold improvement compared to the phenyl substitution (26)” value in assay [2] (34 versus 26) is given as 4 fold. Further, in assay [6], the “MIC methicillin-resistant S. aureus strain” value is reported as 13-25 :M. Moreover, in assay [7], the “MIC Klebsiella pneumoniae” value is 13-25 :M. For the same compound, the “MIC E. coli” value in assay [8] (E. coli ATCC 25922) is given as 6-13 :M. The “inhibition of eukaryotic protein synthesis” value in assay [9] is recorded as “not to inhibit”. Moreover, the “MIC Streptococcus pyogenes” value in assay [10] is on record as 3-6 :M.
